{
  "source": "patent US20170119783A1",
  "about": "“Method for Treating Cognitive Impairment Associated With Neurodegenerative Disorders” (priority 2014, published 2017)",
  "origin": "cited, not measured here",
  "key": {"[1]": {"system": "Ehrlich ascots tumor cells"}, "nucleic acid synthesis": {"system": "nucleic acid synthesis", "conditions": "relative to artemisinin"}, "cancer cells": {"system": "cancer cells", "conditions": "more effective for hepatoma and embryonic lung cells than human gastric cancer cells"}, "[2]": {"conditions": "within the group of artemisinin analogs"}},
  "note": "Read-outs that look alike come from different tables or passages of the source.",
  "data": [
    {"smiles": "C[C@H]1[C@H](N2CCS(=O)(=O)CC2)O[C@@H]2O[C@@]3(C)CC[C@H]4[C@H](C)CC[C@@H]1[C@@]24OO3", "note": "[Artemisone]", "values": [
      {"measurement": "antimalarial activity (in words)", "setting": "Plasmodium falciparum; Haynes et al. 2006", "result": "high antimalarial activity"}
    ]},
    {"smiles": "CO[C@H]1O[C@@H]2O[C@@]3(C)CC[C@H]4[C@H](C)CC[C@@H]([C@H]1C)[C@@]24OO3", "note": "[Artemether]", "values": [
      {"measurement": "water solubility (in words)", "result": "higher solubility in water"}
    ]},
    {"smiles": "C[C@H]1[C@H](OC(=O)CCC(=O)[O-])O[C@@H]2O[C@@]3(C)CC[C@H]4[C@H](C)CC[C@@H]1[C@@]24OO3.[Na+]", "note": "[sodium artesunate]", "values": [
      {"measurement": "efficacy against Ehrlich ascots tumor cells (in words)", "setting": "[1]", "result": "efficacy against Ehrlich ascots tumor cells"}
    ]},
    {"smiles": "CCO[C@H]1O[C@@H]2O[C@@]3(C)CC[C@H]4[C@H](C)CC[C@@H]([C@H]1C)[C@@]24OO3", "note": "[arteether]", "values": [
      {"measurement": "ability to inhibit nucleic acid synthesis, times the activity of artemisinin", "setting": "nucleic acid synthesis", "result": 100, "unit": "times"},
      {"measurement": "water solubility (in words)", "result": "higher solubility in water"},
      {"measurement": "efficacy against Ehrlich ascots tumor cells (in words)", "setting": "[1]", "result": "efficacy against Ehrlich ascots tumor cells"}
    ]},
    {"smiles": "C[C@H]1[C@@H](O)O[C@@H]2O[C@@]3(C)CC[C@H]4[C@H](C)CC[C@@H]1[C@@]24OO3", "note": "[Dihydroartemisinin]", "values": [
      {"measurement": "water solubility (in words)", "result": "higher solubility in water"}
    ]},
    {"smiles": "C[C@@H]1CC[C@H]2[C@@H](C)C(=O)O[C@@H]3O[C@@]4(C)CC[C@@H]1[C@]32OO4", "note": "[Artemisinin, (3R,5aS,6R,8aS,9R,12S,12aR)-octahydro-3,6,9-trimethyl-3,12-epoxy-12H-pyr-ano[4,3-j]-1,2-benzodioxepin-10(3H)-one]", "values": [
      {"measurement": "water solubility (in words)", "result": "poor water solubility"},
      {"measurement": "efficacy against Ehrlich ascots tumor cells (in words)", "setting": "[1]", "result": "efficacy against Ehrlich ascots tumor cells"},
      {"measurement": "toxicity to cancer cells in vitro (in words)", "setting": "cancer cells", "result": "toxic to cancer cells in vitro"}
    ]},
    {"smiles": "C[C@H]1[C@@H](OCc2ccc(C(=O)O)cc2)O[C@@H]2O[C@]3(C)CC[C@H]4[C@H](C)CC[C@@H]1[C@@]24OO3", "note": "[sodium artelinate]", "values": [
      {"measurement": "efficacy against Ehrlich ascots tumor cells (in words)", "setting": "[1]", "result": "efficacy against Ehrlich ascots tumor cells"}
    ]},
    {"smiles": "C[C@@H]1[C@H](OCc2ccc(C(=O)O)cc2)O[C@@H]2O[C@@]3(C)CC[C@@H]4[C@@H](C)CC[C@@H]1[C@]24OO3", "note": "[Artelinic acid]", "values": [
      {"measurement": "stability (in words)", "setting": "[2]", "result": "most stable"},
      {"measurement": "water solubility (in words)", "result": "most water-soluble"},
      {"measurement": "water solubility (in words)", "setting": "listed as artelinic acid", "result": "higher solubility in water"},
      {"measurement": "efficacy against Ehrlich ascots tumor cells (in words)", "setting": "[1]", "result": "efficacy against Ehrlich ascots tumor cells"}
    ]},
    {"smiles": "CCCOC(=O)OC1O[C@@H]2O[C@@]3(C)CC[C@H]4[C@H](C)CC[C@@H]([C@H]1C)[C@@]24OO3", "note": "(stereo partly shown) [propylcarbonate dihydroartemisinin]", "values": [
      {"measurement": "ability to inhibit nucleic acid synthesis, times the activity of artemisinin", "setting": "nucleic acid synthesis", "result": 100, "unit": "times"},
      {"measurement": "water solubility (in words)", "result": "higher solubility in water"}
    ]},
    {"smiles": "C[C@H]1[C@H](OC(=O)CCC(=O)O)O[C@@H]2O[C@@]3(C)CC[C@H]4[C@H](C)CC[C@@H]1[C@@]24OO3", "note": "[artesunate]", "values": [
      {"measurement": "ability to inhibit nucleic acid synthesis, times the activity of artemisinin", "setting": "nucleic acid synthesis", "result": 100, "unit": "times"},
      {"measurement": "antimalarial potency, times that of artemisinin", "setting": "Plasmodium falciparum; relative to artemisinin", "result": 5.2, "unit": "times"}
    ]}
  ]
}
